# Laboratory results: PMC3376857 (2012)
# Molecular target: HDAC1 (Homo sapiens, UniProt Q13547)
# Sequence (Q13547 whole entry): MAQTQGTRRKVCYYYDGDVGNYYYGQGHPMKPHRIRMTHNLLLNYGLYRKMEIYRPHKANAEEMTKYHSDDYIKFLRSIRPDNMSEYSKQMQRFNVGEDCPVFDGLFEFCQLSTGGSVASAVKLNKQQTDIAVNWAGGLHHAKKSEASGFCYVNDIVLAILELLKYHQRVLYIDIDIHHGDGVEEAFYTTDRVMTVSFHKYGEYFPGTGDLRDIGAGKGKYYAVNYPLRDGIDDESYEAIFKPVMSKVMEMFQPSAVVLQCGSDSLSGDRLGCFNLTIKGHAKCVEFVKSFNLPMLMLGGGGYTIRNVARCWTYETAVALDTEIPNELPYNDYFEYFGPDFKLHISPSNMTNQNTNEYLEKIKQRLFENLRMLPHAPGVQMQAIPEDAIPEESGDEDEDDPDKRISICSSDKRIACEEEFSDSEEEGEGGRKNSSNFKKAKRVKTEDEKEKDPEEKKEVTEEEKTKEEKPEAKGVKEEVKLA
compound,measurement,value
"CC(/C=C/C(=O)NO)=C\[C@@H](C)C(=O)c1ccc(N(C)C)cc1 [TSA, trichostatin A]",deacetylase assay with immunopurified Flag-HDAC1 and acetylated p53 protein,1 µM
